# Assay results published in US20250268826A1, “IONIZABLE LIPIDOID COMPOSITIONS AND THERAPEUTIC USES THEREOF” (Flagship Pioneering Innovations VII, LLC, priority 2023, published 2025).
# Where two headings read alike, the source gives them in different places.
# Key:
# Type in all cases: physicochemical
# [1] = Encapsulation efficiency (EE %) by fluorescence based Ribogreen assay
# [2] = LNP Zeta potential measured using a Zetasizer (Malvern); settings: for Zeta potential (mV): Table 11, LNP with hEPO mRNA, Lipid:DSPC:Cholesterol:DMG-PEG2k 50:10:38.5:1.5 mol % (ALC-0315: 46.3:9.4:42.7:1.6), N:P ratio 6, HEPES/sodium chloride/sucrose buffer, stored at −80C; for Zeta potential: hEPO mRNA, N:P 6
# [3] = LNP size and polydispersity index (PDI) by dynamic light scattering (DLS)
# [4] = Table 11, LNP with hEPO mRNA, Lipid:DSPC:Cholesterol:DMG-PEG2k 50:10:38.5:1.5 mol % (ALC-0315: 46.3:9.4:42.7:1.6), N:P ratio 6, HEPES/sodium chloride/sucrose buffer, stored at −80C
# [5] = Table 5, LNP 50:10:38.5:1.5 mol %, hEPO mRNA, N:P 6
# [6] = Table 5, LNP 50:10:38.5:1.5 mol %
# [7] = Table 5, LNP Lipid:DSPC:Cholesterol:DMG-PEG2k 50:10:38.5:1.5 mol %, hEPO mRNA, N:P 6
# [8] = Table 8, LNP 50:10:38.5:1.5 mol %, hEPO mRNA, N:P 6
# [9] = Table 8, LNP 50:10:38.5:1.5 mol %
# [10] = Table 8, LNP Lipid:DSPC:Cholesterol:DMG-PEG2k 50:10:38.5:1.5 mol %, hEPO mRNA, N:P 6
# [11] = Table 1, LNP lipid:DSPC:Cholesterol:DMG-PEG2k 50:10:38.5:1.5 mol %, hEPO mRNA, N:P 6
# [12] = Table 1, LNP lipid:DSPC:Cholesterol:DMG-PEG2k 50:10:38.5:1.5 mol %
# [13] = Table 6, LNP 50:10:38.5:1.5 mol %, hEPO mRNA, N:P 6
# [14] = Table 6, LNP 60:0:38.5:1.5 mol %, hEPO mRNA, N:P 6
# [15] = Table 6, LNP 50:10:38.5:1.5 mol %
# [16] = Table 6, LNP 60:0:38.5:1.5 mol %
# [17] = Table 6, LNP lipid:DSPC:Cholesterol:DMG-PEG2k 50:10:38.5:1.5 mol %, hEPO mRNA, N:P 6
# [18] = Table 9, LNP 50:10:38.5:1.5 mol %, hEPO mRNA, N:P 6
# [19] = Table 9, LNP 50:10:38.5:1.5 mol %
# [20] = Table 9, LNP Lipid:DSPC:Cholesterol:DMG-PEG2k 50:10:38.5:1.5 mol %, hEPO mRNA, N:P 6
# [21] = Table 5, LNP 60:0:38.5:1.5 mol %, hEPO mRNA, N:P 6
compound,measurement,setting,value
CCCCCCCCC(CCCCCC)C(=O)OCCN(CCOC(=O)C(CCCCCC)CCCCCCCC)C(=O)C(C)CCN(CCC)CCC.Cl (stereo not shown) [Compound 987k],Encapsulation Efficiency %,[1]; [4],87.2%
same,Zeta potential (mV),[2],−3.4 mV
same,PDI,[3]; [4],0.045
same,Size (nm),[3]; [4],76.7 nm
CCCCCCCCCC(CCCCCCCCC)C(=O)OCCN(CCOC(=O)C(CCCCCCCCC)CCCCCCCCC)C(=O)C(N)Cc1ccccc1 (stereo not shown) [Compound 621],Encapsulation Efficiency %,[1]; [5],98.9%
same,Zeta potential,[2]; [6],−10.9 mV
same,PDI,[3]; [5],0.332
same,Size,[3]; [7],49.4 nm
CCCCCCCCC(CCCCCC)C(=O)OCCN(CCOC(=O)C(CCCCCC)CCCCCCCC)C(=O)C(C)CCNC.Cl (stereo not shown) [Compound 987d],Encapsulation Efficiency %,[1]; [4],99.2%
same,Zeta potential (mV),[2],−1.5 mV
same,PDI,[3]; [4],0.092
same,Size (nm),[3]; [4],62.9 nm
CCCCCCCCC(CCCCCC)C(=O)OCCN(CCOC(=O)C(CCCCCC)CCCCCCCC)C(=O)C(C)CNC.Cl (stereo not shown) [Compound 924],Encapsulation Efficiency %,[1]; [8],99.9%
same,Zeta potential,[2]; [9],−8.7 mV
same,PDI,[3]; [8],0.142
same,Size,[3]; [10],87.2 nm
CCCCCCCCC(CCCCCC)C(=O)OCCN(CCOC(=O)C(CCCCCC)CCCCCCCC)C(=O)C(C)CCN(C)CC.Cl (stereo not shown) [Compound 987f],Encapsulation Efficiency %,[1]; [4],92.3%
same,Zeta potential (mV),[2],−2.8 mV
same,PDI,[3]; [4],0.072
same,Size (nm),[3]; [4],79.4 nm
CCCCCCCCCCCC(=O)OCCN(CCOC(=O)CCCCCCCCCCC)C(=O)C(C)N (stereo not shown) [Compound 109],Encapsulation Efficiency %,[1]; [11],97.6%
same,Zeta potential,[2]; [12],8.911 mV
same,PDI,[3]; [11],0.557
same,Size,[3]; [11],90.7 nm
CCCCCCCCC(CCCCCC)C(=O)OCCN(CCOC(=O)C(CCCCCC)CCCCCCCC)C(=O)CCCNCC.Cl (stereo not shown) [Compound 935],Encapsulation Efficiency %,[1]; [8],99.9%
same,Zeta potential,[2]; [9],−9.5 mV
same,PDI,[3]; [8],0.167
same,Size,[3]; [10],111.9 nm
CCCCCCCCC(CCCCCC)C(=O)OCCN(CCOC(=O)C(CCCCCC)CCCCCCCC)C(=O)CCN (stereo not shown) [Compound 801],Encapsulation Efficiency %,[1]; [13],98.5%
same,Encapsulation Efficiency %,[1]; [14],98.4%
same,Zeta potential,[2]; [15],−1.5 mV
same,Zeta potential,[2]; [16],1.6 mV
same,PDI,[3]; [13],0.436
same,PDI,[3]; [14],0.169
same,Size,[3]; [14],93.6 nm
same,Size,[3]; [17],105.8 nm
CCCCCCCCCCC(CCCC)C(=O)OCCN(CCOC(=O)C(CCCC)CCCCCCCCCC)C(=O)C(N)Cc1ccccc1 (stereo not shown) [Compound 619],Encapsulation Efficiency %,[1]; [5],98.1%
same,Zeta potential,[2]; [6],−11.63 mV
same,PDI,[3]; [5],0.183
same,Size,[3]; [7],60.7 nm
CCCCCCCCCC(=O)OCCN(CCOC(=O)CCCCCCCCC)C(=O)C(C)N (stereo not shown) [Compound 110],Encapsulation Efficiency %,[1]; [11],98%
same,Zeta potential,[2]; [12],−4.943 mV
same,PDI,[3]; [11],0.069
same,Size,[3]; [11],57.7 nm
CCCCCCCCC(CC)C(=O)OCCN(CCOC(=O)C(CC)CCCCCCCC)C(=O)C(N)Cc1ccccc1 (stereo not shown) [Compound 617],Encapsulation Efficiency %,[1]; [5],99.1%
same,Zeta potential,[2]; [6],−5.824 mV
same,PDI,[3]; [5],0.32
same,Size,[3]; [7],63.7 nm
CCCCCCCCCCCC(=O)OCCN(CCOC(=O)CCCCCCCCCCC)C(=O)C(N)CO (stereo not shown) [Compound 134],Encapsulation Efficiency %,[1]; [11],90.5%
same,Zeta potential,[2]; [12],6.281 mV
same,PDI,[3]; [11],0.321
same,Size,[3]; [11],87.1 nm
CCCCCCCCCCCC(=O)OCCN(CCOC(=O)CCCCCCCCCCC)C(=O)C(N)Cc1c[nH]cn1 (stereo not shown) [Compound 127],Encapsulation Efficiency %,[1]; [11],89.5%
same,Zeta potential,[2]; [12],6.011 mV
same,PDI,[3]; [11],0.387
same,Size,[3]; [11],85.9 nm
CCCCCCCCC(CCCCCC)C(=O)OCCN(CCOC(=O)C(CCCCCC)CCCCCCCC)C(=O)CCC(C)N (stereo not shown) [Compound 805],Encapsulation Efficiency %,[1]; [13],98.3%
same,Encapsulation Efficiency %,[1]; [14],99.9%
same,Zeta potential,[2]; [15],−0.2 mV
same,Zeta potential,[2]; [16],3 mV
same,PDI,[3]; [13],0.214
same,PDI,[3]; [14],0.137
same,Size,[3]; [14],84.7 nm
same,Size,[3]; [17],110.2 nm
CCCCCCCCC(CCCCCC)C(=O)OCCN(CCOC(=O)C(CCCCCC)CCCCCCCC)C(=O)CN1CCCC1.Cl (stereo not shown) [Compound 960c],Encapsulation Efficiency %,[1]; [18],99.7%
same,Zeta potential,[2]; [19],−20.89 mV
same,PDI,[3]; [18],0.079
same,Size,[3]; [20],88 nm
CCCCCCCCCC(CCCCCCCC)C(=O)OCCN(CCOC(=O)C(CCCCCCCC)CCCCCCCCC)C(=O)CCCN(C)C.Cl (stereo not shown) [Compound 933],Encapsulation Efficiency %,[1]; [8],99.2%
same,Zeta potential,[2]; [9],−12.2 mV
same,PDI,[3]; [8],0.301
same,Size,[3]; [10],110.9 nm
CCCCCCCC(CCCCCCC)C(=O)OCCN(CCOC(=O)C(CCCCCCC)CCCCCCC)C(=O)C(C)CCN(C)C.Cl (stereo not shown) [Compound 987b],Encapsulation Efficiency %,[1]; [4],93.6%
same,Zeta potential (mV),[2],−2.1 mV
same,PDI,[3]; [4],0.102
same,Size (nm),[3]; [4],74.1 nm
CCCCCCCCC(CCCCCC)C(=O)OCCN(CCOC(=O)C(CCCCCC)CCCCCCCC)C(=O)C(C)CCN(C)CCC.Cl (stereo not shown) [Compound 987i],Encapsulation Efficiency %,[1]; [4],94.9%
same,Zeta potential (mV),[2],−4.1 mV
same,PDI,[3]; [4],0.059
same,Size (nm),[3]; [4],71.7 nm
CCCCCCCCC(CCCCCC)C(=O)OCCN(CCOC(=O)C(CCCCCC)CCCCCCCC)C(=O)CCCN(CC)CC.Cl (stereo not shown) [Compound 937],Encapsulation Efficiency %,[1]; [8],99.9%
same,Zeta potential,[2]; [9],−9.2 mV
same,PDI,[3]; [8],0.136
same,Size,[3]; [10],144 nm
CCCCCCCCC(CCCCCC)C(=O)OCCN(CCOC(=O)C(CCCCCC)CCCCCCCC)C(=O)C(C)CCN(CC)CCC.Cl (stereo not shown) [Compound 987j],Encapsulation Efficiency %,[1]; [4],95.7%
same,Zeta potential (mV),[2],−4.4 mV
same,PDI,[3]; [4],0.101
same,Size (nm),[3]; [4],76.6 nm
CCCCCCCCCC(=O)OCCN(CCOC(=O)CCCCCCCCC)C(=O)C(N)CO (stereo not shown) [Compound 135],Encapsulation Efficiency %,[1]; [11],89.8%
same,Zeta potential,[2]; [12],2.909 mV
same,PDI,[3]; [11],0.228
same,Size,[3]; [11],111.3 nm
CCCCCCCCCC(=O)OCCN(CCOC(=O)CCCCCCCCC)C(=O)CN [Compound 104],Encapsulation Efficiency %,[1]; [11],94.4%
same,Zeta potential,[2]; [12],−2.361 mV
same,PDI,[3]; [11],0.441
same,Size,[3]; [11],74.7 nm
CCCCCCCCC(CC)C(=O)OCCN(CCOC(=O)C(CC)CCCCCCCC)C(=O)CN (stereo not shown) [Compound 603],Encapsulation Efficiency %,[1]; [5],98.4%
same,Zeta potential,[2]; [6],−3.116 mV
same,PDI,[3]; [5],0.213
same,Size,[3]; [7],71.7 nm
CCCCCCCCC(CCCCCC)C(=O)OCCN(CCOC(=O)C(CCCCCC)CCCCCCCC)C(=O)C(C)CCN(C)C (stereo not shown) [Compound 987a],Encapsulation Efficiency %,[1],95.7%
same,Zeta potential (mV),[2],−3.5 mV
same,PDI,[3],0.104
same,Size (nm),[3],73.2 nm
CCCCCCCC(CCCCCCC)C(=O)OCCN(CCOC(=O)C(CCCCCCC)CCCCCCC)C(=O)CN [Compound 604],Encapsulation Efficiency %,[1]; [5],99.3%
same,Encapsulation Efficiency %,[1]; [21],98%
same,Zeta potential,[2]; [6],−7.347 mV
same,Zeta potential,"[2]; Table 5, LNP 60:0:38.5:1.5 mol %",−3.753 mV
same,PDI,[3]; [5],0.102
same,PDI,[3]; [21],0.15
same,Size,[3]; [21],236.6 nm
same,Size,[3]; [7],208.5 nm
CCCCCCCCC(CCCCCC)C(=O)OCCN(CCOC(=O)C(CCCCCC)CCCCCCCC)C(=O)CNCCC.Cl (stereo not shown) [Compound 968],Encapsulation Efficiency %,[1]; [18],98.2%
same,Zeta potential,[2]; [19],−13.15 mV
same,PDI,[3]; [18],0.368
same,Size,[3]; [20],76.7 nm
CCCCCCCCC(CCCCCC)C(=O)OCCN(CCOC(=O)C(CCCCCC)CCCCCCCC)C(=O)C(C)CCN1CCCCC1.Cl (stereo not shown) [Compound 987m],Encapsulation Efficiency %,[1]; [4],94.9%
same,Zeta potential (mV),[2],−5.1 mV
same,PDI,[3]; [4],0.076
same,Size (nm),[3]; [4],73.7 nm
CCCCCCCCC(CCCCCC)C(=O)OCCN(CCOC(=O)C(CCCCCC)CCCCCCCC)C(=O)CCNCCC.Cl (stereo not shown) [Compound 908],Encapsulation Efficiency %,[1]; [8],100%
same,Zeta potential,[2]; [9],−8 mV
same,PDI,[3]; [8],0.215
same,Size,[3]; [10],69.2 nm
